# Reference: patent US20230099031A1, “BIFUNCTIONAL AGENTS FOR PROTEIN RECRUITMENT AND/OR DEGRADATION” (Orionis Biosciences, Inc., priority 2019, published 2023)
# Counter-ions that a name gives are not always drawn.
# Molecular target: T1, CRBN (Homo sapiens, UniProt Q96SW2)
# T1 construct: expressed in transfected cells; host or cells: HEK293T
# Assay: Competition Assay: MAPPIT-like, competition with trimethoprim-lenalidomide hybrid ligand for binding to CRBN in HEK293T cells
# Format: cell-based
# Conditions: HEK293T cells, 300 nM trimethoprim-lenalidomide hybrid ligand, luciferase 24 hours after compound treatment; read-out: Competition IC50
# Source text: A bait protein (protein A) is expressed as a fusion protein in which it is genetically fused to an engineered intracellular receptor domain of the leptin receptor, which is itself fused to the extracellular domain of the erythropoietin (Epo) receptor. Binding of Epo ligand to the EpoR component results in activation of receptor-associated intracellular JAK2. However, activated JAK2 cannot activate the leptin receptor to trigger STAT3 binding and its phosphorylation because its tyrosine residues, normally phosphorylated by activated JAK2, have been mutated. Reconstitution of a JAK2 phosphorylatable STAT3 docking site is instead created through interaction of a protein B with protein A, whereby protein B is fused to a cytoplasmic domain of the gp130 receptor (which now harbors appropriate tyrosine resides recognized by the activated JAK2 kinase). Thus, physical interaction of protein A with protein B reconstitutes and Epo triggers JAK2-STAT3 signaling pathway activation. Activation of STAT3 can be monitored by introduction of a STAT3-responsive reporter gene, including a luciferase-encoding gene or a gene encoding a fluorescent marker such as GFP or some other type of fluorescent protein (EGF etc.). In this manner, the MAPPIT assay provides a versatile assay to assess such recombinant protein-protein interactions, or compound- or hybrid ligand-induced protein-protein interactions, in intact cells.
# Formation of the complex results in activation of a STAT-responsive luciferase reporter gene. That signal is set to 100% luciferase activity. In a separate sample set up, cells are prepared in the same manner but, in addition, co-incubated with a test compound whose interaction with CRBN is investigated. […] Increasing concentrations of test compound are assessed to determine CRBN binding efficiency as determined in this type of ligand competition experiment in living cells. Specificity of signal inhibition is assessed by a parallel experimental set up in which test compound effect is assessed for inhibition of signal generated by a control gp130 fusion protein (CTRL) that directly binds to the DHFR-fusion protein in the absence of hybrid ligand (i.e. a direct interaction of the proteins).
# In more detail, HEK293T cells are cultured in Dulbecco's modified Eagle's medium supplemented with 10% fetal calf serum, incubated at 37° C., 8% CO2. […] Data points represent the average luciferase activity of triplicate samples derived from cells treated with leptin+test compound for the REM2 control (CTRL) or cells treated with leptin+hybrid ligand+test compound (CRBN) relative to leptin (CTRL) or leptin+hybrid ligand (CRBN) only treated samples (the signals obtained in absence of added test compound for both cases is set at 100% of luciferase activity on y-axis). Error bars represent standard deviations. Curves are fit using 4-parameter nonlinear regression in […] PRISM software
row,Compound,IC50 [nM]
1,C#CCOCCOCCOCCNc1nc(Nc2ccc3c(c2)CN(C2CCC(=O)NC2=O)C3=O)c2ccsc2n1 (stereo not drawn) [Compound 5.01],435
2,Cc1sc2c(c1C)C(c1ccc(Cl)cc1)=N[C@@H](CC(=O)NCCOCCOCCOCCOCCNC(=O)COc1cccc3c1CN(C1CCC(=O)NC1=O)C3=O)c1nnc(C)n1-2 (stereo partly drawn) [Compound 5.57],109
3,C#CCOCCOCCOCCNC(=O)c1ccc(CNC(=O)CNc2ccc3c(c2)C(=O)N(C2CCC(=O)NC2=O)C3)cc1 (stereo not drawn) [Compound 5.08],5250

# Same assay, conditions: protocol and reagents of Example 1; read-out: IC50 Competition
row,Compound,IC50 [nM]
1,"O=C1CCC(N2Cc3ccc(NCC(=O)NC4CCOCC4)cc3C2=O)C(=O)N1 (stereo not drawn) [Compound C12693, 2-[[2-(2,6-dioxo-3-piperidyl)-3-oxo-isoindolin-5-yl]amino]-N-tetrahydropyran-4-yl-acetamide]",8330
2,"O=C1CCC(N2Cc3cc(-c4ccccc4)ccc3C2=O)C(=O)N1 (stereo not drawn) [Compound C48016, 3-(1-oxo-5-phenyl-isoindolin-2-yl)piperidine-2,6-dione]",173
3,"CC(Nc1ccc2c(c1)C(=O)N(C1CCC(=O)NC1=O)C2)C(=O)O (stereo not drawn) [Compound C84970, 2-[[2-(2,6-dioxo-3-piperidyl)-3-oxo-isoindolin-5-yl]amino]propanoic acid]",1420
4,"N#Cc1ccc2c(c1)CN(C1CCC(=O)NC1=O)C2=O (stereo not drawn) [Compound C48005, 2-(2,6-dioxo-3-piperidyl)-1-oxo-isoindoline-5-carbonitrile]",1730
5,"O=C1CCC(N2Cc3ccc(NC(=O)c4cnc5nccn5c4)cc3C2=O)C(=O)N1 (stereo not drawn) [Compound C80396, N-[2-(2,6-dioxo-3-piperidyl)-3-oxo-isoindolin-5-yl]imidazo[1,2-a]pyrimidine-6-carboxamide]",2630
6,"NC(=O)c1ccc2c(c1)C(=O)N(C1CCC(=O)NC1=O)C2 (stereo not drawn) [Compound C39772, 2-(2,6-dioxo-3-piperidyl)-3-oxo-isoindoline-5-carboxamide]",13800
7,"O=C1CCC(N2C(=O)C=C(c3ccccc3)C2=O)C(=O)N1 (stereo not drawn) [Compound C64319, 3-(2,5-dioxo-3-phenyl-pyrrol-1-yl)piperidine-2,6-dione]",42900
8,"CC1CCCCN1C(=O)CNc1ccc2c(c1)C(=O)N(C1CCC(=O)NC1=O)C2 (stereo not drawn) [Compound C12584, 3-[6-[[2-(2-methyl-1-piperidyl)-2-oxo-ethyl]amino]-1-oxo-isoindolin-2-yl]piperidine-2,6-dione]",0.0791
9,"Cc1cc2[nH]cnc(Nc3ccc4c(c3)C(=O)N(C3CCC(=O)NC3=O)C4)c-2n1 (stereo not drawn) [Compound C80390, 3-[6-[(6-methylpyrrolo[3,2-d]pyrimidin-4-yl)amino]-1-oxo-isoindolin-2-yl]piperidine-2,6-dione]",729
10,"O=C1CCC(N2C(=O)CC3(CCOCC3)C2=O)C(=O)N1 (stereo not drawn) [Compound C64348, 2-(2,6-dioxo-3-piperidyl)-8-oxa-2-azaspiro[4.5]decane-1,3-dione]",12900
11,"Cc1cc(Nc2ccc3c(c2)C(=O)N(C2CCC(=O)NC2=O)C3)ncn1 (stereo not drawn) [Compound C80384, 3-[6-[(6-methylpyrimidin-4-yl)amino]-1-oxo-isoindolin-2-yl]piperidine-2,6-dione]",179
12,"O=C1CCC(Nc2ncc3ccccc3n2)C(=O)N1 (stereo not drawn) [Compound C97402, 3-(quinazolin-2-ylamino)piperidine-2,6-dione]",6320
13,"O=C1CCC(N2Cc3ccc(Nc4ncnc5ccccc45)cc3C2=O)C(=O)N1 (stereo not drawn) [C80382 acetic acid salt, acetic acid;3-[1-oxo-6-(quinazolin-4-ylamino)isoindolin-2-yl]piperidine-2,6-dione]",33.4
14,"CN(C)CC(=O)Nc1ccc2c(c1)C(=O)N(C1CCC(=O)NC1=O)C2 (stereo not drawn) [Compound C49708, 2-(dimethylamino)-N-[2-(2,6-dioxo-3-piperidyl)-3-oxo-isoindolin-5-yl]acetamide]",752
15,"COc1cccc2c1C(=O)N(C1CCC(=O)NC1=O)C2 (stereo not drawn) [Compound C29137, 3-(7-methoxy-1-oxo-isoindolin-2-yl)piperidine-2,6-dione]",304
16,"CN1CCN(C(=O)CNc2ccc3c(c2)C(=O)N(C2CCC(=O)NC2=O)C3)CC1=O (stereo not drawn) [Compound C12597, 3-[6-[[2-(4-methyl-3-oxo-piperazin-1-yl)-2-oxo-ethyl]amino]-1-oxo-isoindolin-2-yl]piperidine-2,6-dione]",5500
17,"CC1CN(C(=O)CNc2ccc3c(c2)C(=O)N(C2CCC(=O)NC2=O)C3)CC(=O)N1 (stereo not drawn) [Compound C12598, 3-[6-[[2-(3-methyl-5-oxo-piperazin-1-yl)-2-oxo-ethyl]amino]-1-oxo-isoindolin-2-yl]piperidine-2,6-dione]",4880
18,O=C1CCC(N2Cc3ccc(NCC(=O)N4CC5CC4CO5)cc3C2=O)C(=O)N1 (stereo not drawn) [Compound C12589],10300
19,"Cc1cccc2c1C(=O)N(C1CCC(=O)NC1=O)S2(=O)=O (stereo not drawn) [Compound C73349, 3-(4-methyl-1,1,3-trioxo-1,2-benzothiazol-2-yl)piperidine-2,6-dione]",4950
20,"O=C1CCC(Nc2cnc3ccccc3n2)C(=O)N1 (stereo not drawn) [Compound C44292, 3-(quinoxalin-2-ylamino)piperidine-2,6-dione]",8320
21,"NC(=O)CNc1ccc2c(c1)C(=O)N(C1CCC(=O)NC1=O)C2 (stereo not drawn) [Compound C84961, 2-[[2-(2,6-dioxo-3-piperidyl)-3-oxo-isoindolin-5-yl]amino]acetamide]",4010
22,"CN(C)c1ccc2c(c1)C(=O)N(C1CCC(=O)NC1=O)C2 (stereo not drawn) [Compound C96622, 3-[6-(dimethylamino)-1-oxo-isoindolin-2-yl]piperidine-2,6-dione]",214
23,"Nc1nccc(Nc2ccc3c(c2)CN(C2CCC(=O)NC2=O)C3=O)n1 (stereo not drawn) [Compound C80375, 3-[5-[(2-aminopyrimidin-4-yl)amino]-1-oxo-isoindolin-2-yl]piperidine-2,6-dione]",2060
24,"CC1CN(C)CCN1C(=O)CNc1ccc2c(c1)C(=O)N(C1CCC(=O)NC1=O)C2 (stereo not drawn) [Compound C12595, 3-[6-[[2-(2,4-dimethylpiperazin-1-yl)-2-oxo-ethyl]amino]-1-oxo-isoindolin-2-yl]piperidine-2,6-dione]",208
25,"O=C1CCC(N2C(=O)CC3(Cc4ccccc4C3)C2=O)C(=O)N1 (stereo not drawn) [Compound C64329, 1′-(2,6-dioxo-3-piperidyl)spiro[indane-2,3′-pyrrolidine]-2′,5′-dione]",15100

# Molecular target: T2, SALL4 (Homo sapiens, UniProt Q96SW2+Q9UJQ4)
# T2 construct: Full size proteins are fused for each of the target proteins tested; expressed in transfected cells; host or cells: HEK293T
# Assay: Recruitment Assay (MAPPIT-like): SALL4 recruitment, pSEL-SALL4+pMG1-CRBN
# Format: cell-based
# Conditions: recruitment of SALL4, protocol of Example 2; read-out: EC50_SALL4
# Method: In this experimental set-up, cells are transfected with a construct encoding a CRBN-fusion protein and another one encoding a substrate-fusion protein. Test compound activity is assessed with increasing concentrations of test compounds (dose-response studies) to monitor the ability to promote CRBN-ligand-induced protein interaction.
# Full size proteins are fused for each of the target proteins tested, except in the case of IKZF1 where isoform 7 is used, and BRD4, where isoform 3 is applied. For the study, the following construct combinations are used: IKZF1 recruitment: pSEL-CRBN+pMG1-IKZF1(isoform 7); ASS1 recruitment: pSEL-CRBN+pMG1-ASS1; SALL4 recruitment: pSEL-SALL4+pMG1-CRBN; DHFR recruitment: pCLG-DHFR+pMG1-CRBN; ESR1 recruitment: pSEL-CRBN+pMG1-ESR1; BRD4 recruitment: pSEL-CRBN+pMG1-BRD4(isoform 3). Cells are treated with erythropoietin (Epo; where pSEL-type receptor fusions constructs are used) or leptin (in the case pCLG-type receptor fusion constructs are applied) without or with the indicated dose of test compound at 24 hours after transfection. Luciferase activity is measured 24 hours after test compound treatment using the Luciferase Assay System kit (PROMEGA, Madison, Wis.) with an Ensight plate reader (PERKIN ELMER LIFE SCIENCES, Waltham, Mass.). Data points depict fold induction of the average luciferase activity of triplicate samples from Epo or leptin+test compound treated cells versus Epo or leptin only treated cells. Error bars represent standard deviations. Curves are fit using 4-parameter nonlinear regression in […] PRISM software.
row,Compound,EC50 [nM]
1,"O=C1CCC(N2Cc3ccc(NCC(=O)NC4CCOC4)cc3C2=O)C(=O)N1 (stereo not drawn) [Compound C12694, 2-[[2-(2,6-dioxo-3-piperidyl)-3-oxo-isoindolin-5-yl]amino]-N-tetrahydrofuran-3-yl-acetamide]",3430
2,"O=C1CCC(N2Cc3ccc(NCC(=O)NC4CCOCC4)cc3C2=O)C(=O)N1 (stereo not drawn) [Compound C12693, 2-[[2-(2,6-dioxo-3-piperidyl)-3-oxo-isoindolin-5-yl]amino]-N-tetrahydropyran-4-yl-acetamide]",2620
3,"O=C1CCC(N2Cc3cc(-c4ccccc4)ccc3C2=O)C(=O)N1 (stereo not drawn) [Compound C48016, 3-(1-oxo-5-phenyl-isoindolin-2-yl)piperidine-2,6-dione]",122
4,"CC(Nc1ccc2c(c1)C(=O)N(C1CCC(=O)NC1=O)C2)C(=O)O (stereo not drawn) [Compound C84970, 2-[[2-(2,6-dioxo-3-piperidyl)-3-oxo-isoindolin-5-yl]amino]propanoic acid]",1010
5,"N#Cc1ccc2c(c1)CN(C1CCC(=O)NC1=O)C2=O (stereo not drawn) [Compound C48005, 2-(2,6-dioxo-3-piperidyl)-1-oxo-isoindoline-5-carbonitrile]",595
6,"O=C1CCC(N2Cc3ccc(NC(=O)c4cnc5nccn5c4)cc3C2=O)C(=O)N1 (stereo not drawn) [Compound C80396, N-[2-(2,6-dioxo-3-piperidyl)-3-oxo-isoindolin-5-yl]imidazo[1,2-a]pyrimidine-6-carboxamide]",1380
7,"O=C1CCC(N2Cc3cc(Nc4ncc5[nH]cnc5n4)ccc3C2=O)C(=O)N1 (stereo not drawn) [Compound C80376, 3-[1-oxo-5-(7H-purin-2-ylamino)isoindolin-2-yl]piperidine-2,6-dione]",559
8,"O=C1CCC(N2C(=O)c3ccccc3C2NCc2ccccc2)C(=O)N1 (stereo not drawn) [Compound C10239, 3-[1-(benzylamino)-3-oxo-isoindolin-2-yl]piperidine-2,6-dione]",1160
